BindingDB's records for doi:10.1021/jm9807003 (National Institute of Diabetes, 1999)

Test: Ability to inhibit GTP-gamma-S binding to Opioid receptor delta 1 of guinea pig caudate

For `COc1ccc2c(c1O)[C@]13CCN(CC4CC4)[C@H](C2)[C@@H]1Cc1c([nH]c2ccccc12)C3` [17-cyclopropylmethyl-6,7-didehydro-4-hydroxy-3-methoxy-6,7:2',3'-indolmorphinan], which Ki is on record?
Its Ki is 22 nM.
